Source: PubChem BioAssay (NCI)
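Exposure lasted 48 hours, with cells grown in 96-well plates and compounds tested at five concentrations. TGI: concentration producing complete growth inhibition.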

What was measured:
Test in all cases: inhibition of tumour cell growth, NCI panel, 48 h
MOLT-4 leukemia = tested on: MOLT-4 leukemia
RXF 393 renal = tested on: RXF 393 renal
HCC-2998 colon = tested on: HCC-2998 colon
IGROV1 ovarian = tested on: IGROV1 ovarian
EKVX NSCLC = tested on: EKVX NSCLC
MCF7 breast = tested on: MCF7 breast
UACC-62 melanoma = tested on: UACC-62 melanoma
MDA-MB-231 breast = tested on: MDA-MB-231 breast
NCI-H460 lung = tested on: NCI-H460 lung
CCRF-CEM leukemia = tested on: CCRF-CEM leukemia
U251 CNS = tested on: U251 CNS
SK-MEL-28 melanoma = tested on: SK-MEL-28 melanoma
NCI-H522 lung = tested on: NCI-H522 lung
DU-145 prostate = tested on: DU-145 prostate
SN12C renal = tested on: SN12C renal
SW-620 colon = tested on: SW-620 colon
KM12 colon = tested on: KM12 colon
COLO 205 colon = tested on: COLO 205 colon
OVCAR-4 ovarian = tested on: OVCAR-4 ovarian
HCT-15 colon = tested on: HCT-15 colon
SK-MEL-5 melanoma = tested on: SK-MEL-5 melanoma
MDA-N = tested on: MDA-N
LOX IMVI melanoma = tested on: LOX IMVI melanoma
NCI-H23 lung = tested on: NCI-H23 lung
TK-10 renal = tested on: TK-10 renal
SNB-75 CNS = tested on: SNB-75 CNS
HL-60(TB) leukemia = tested on: HL-60(TB) leukemia
K-562 leukemia = tested on: K-562 leukemia
HCT-116 colon = tested on: HCT-116 colon
PC-3 prostate = tested on: PC-3 prostate
SNB-19 CNS = tested on: SNB-19 CNS
SF-268 CNS = tested on: SF-268 CNS
MDA-MB-435 = tested on: MDA-MB-435
OVCAR-8 ovarian = tested on: OVCAR-8 ovarian
T-47D breast = tested on: T-47D breast
M14 melanoma = tested on: M14 melanoma
OVCAR-3 ovarian = tested on: OVCAR-3 ovarian
SF-295 CNS = tested on: SF-295 CNS
OVCAR-5 ovarian = tested on: OVCAR-5 ovarian
UO-31 renal = tested on: UO-31 renal
UACC-257 melanoma = tested on: UACC-257 melanoma
BT-549 breast = tested on: BT-549 breast
SK-OV-3 ovarian = tested on: SK-OV-3 ovarian
HOP-62 NSCLC = tested on: HOP-62 NSCLC
SR leukemia = tested on: SR leukemia
HOP-92 NSCLC = tested on: HOP-92 NSCLC
HT29 colon = tested on: HT29 colon
A549 NSCLC = tested on: A549 NSCLC
SF-539 CNS = tested on: SF-539 CNS
NCI-H226 lung = tested on: NCI-H226 lung
RPMI-8226 leukemia = tested on: RPMI-8226 leukemia
MALME-3M melanoma = tested on: MALME-3M melanoma
ACHN renal = tested on: ACHN renal
A498 renal = tested on: A498 renal
CAKI-1 renal = tested on: CAKI-1 renal
786-0 renal = tested on: 786-0 renal
NCI/ADR-RES ovarian = tested on: NCI/ADR-RES ovarian
SK-MEL-2 melanoma = tested on: SK-MEL-2 melanoma
HS 578T breast = tested on: HS 578T breast

Question: How did the TGI (MOLT-4 leukemia) turn out when COc1ccc(N2C(=O)CSC2c2c[nH]c3ccccc23)cc1 (stereo not drawn) was run?
Answer: > 100 µM

Question: What about the TGI (RXF 393 renal) of the same compound?
Answer: > 100 µM

Question: What about the TGI (HCC-2998 colon) of the same compound?
Answer: > 100 µM

Question: What about the TGI (IGROV1 ovarian) of the same compound?
Answer: > 100 µM

Question: And the TGI (EKVX NSCLC)?
Answer: > 100 µM

Question: What about the TGI (MCF7 breast) of the same compound?
Answer: > 100 µM

Question: What about the TGI (UACC-62 melanoma) of the same compound?
Answer: > 100 µM

Question: What about the TGI (MDA-MB-231 breast) of the same compound?
Answer: > 100 µM

Question: What about the TGI (NCI-H460 lung) of the same compound?
Answer: > 100 µM

Question: What about the TGI (CCRF-CEM leukemia) of the same compound?
Answer: > 100 µM

Question: And the TGI (U251 CNS)?
Answer: > 100 µM

Question: What about the TGI (SK-MEL-28 melanoma) of the same compound?
Answer: > 100 µM

Question: And the TGI (NCI-H522 lung)?
Answer: 84.9 µM

Question: And the TGI (DU-145 prostate)?
Answer: > 100 µM

Question: What about the TGI (SN12C renal) of the same compound?
Answer: > 100 µM

Question: What about the TGI (SW-620 colon) of the same compound?
Answer: > 100 µM

Question: And the TGI (KM12 colon)?
Answer: > 100 µM

Question: And the TGI (COLO 205 colon)?
Answer: > 100 µM

Question: What about the TGI (OVCAR-4 ovarian) of the same compound?
Answer: > 100 µM

Question: What about the TGI (HCT-15 colon) of the same compound?
Answer: > 100 µM

Question: What about the TGI (SK-MEL-5 melanoma) of the same compound?
Answer: > 100 µM

Question: And the TGI (MDA-N)?
Answer: > 100 µM

Question: What about the TGI (LOX IMVI melanoma) of the same compound?
Answer: > 100 µM

Question: And the TGI (NCI-H23 lung)?
Answer: > 100 µM

Question: What about the TGI (TK-10 renal) of the same compound?
Answer: > 100 µM

Question: What about the TGI (SNB-75 CNS) of the same compound?
Answer: > 100 µM

Question: And the TGI (HL-60(TB) leukemia)?
Answer: > 100 µM

Question: What about the TGI (K-562 leukemia) of the same compound?
Answer: > 100 µM

Question: What about the TGI (HCT-116 colon) of the same compound?
Answer: > 100 µM

Question: And the TGI (PC-3 prostate)?
Answer: > 100 µM

Question: And the TGI (SNB-19 CNS)?
Answer: > 100 µM

Question: And the TGI (SF-268 CNS)?
Answer: > 100 µM

Question: What about the TGI (MDA-MB-435) of the same compound?
Answer: > 100 µM

Question: And the TGI (OVCAR-8 ovarian)?
Answer: > 100 µM

Question: And the TGI (T-47D breast)?
Answer: > 100 µM

Question: And the TGI (M14 melanoma)?
Answer: > 100 µM

Question: And the TGI (OVCAR-3 ovarian)?
Answer: > 100 µM

Question: And the TGI (SF-295 CNS)?
Answer: > 100 µM

Question: What about the TGI (OVCAR-5 ovarian) of the same compound?
Answer: > 100 µM

Question: What about the TGI (UO-31 renal) of the same compound?
Answer: > 100 µM

Question: What about the TGI (UACC-257 melanoma) of the same compound?
Answer: > 100 µM

Question: What about the TGI (BT-549 breast) of the same compound?
Answer: > 100 µM

Question: What about the TGI (SK-OV-3 ovarian) of the same compound?
Answer: > 100 µM

Question: What about the TGI (HOP-62 NSCLC) of the same compound?
Answer: > 100 µM

Question: What about the TGI (SR leukemia) of the same compound?
Answer: > 100 µM

Question: And the TGI (HOP-92 NSCLC)?
Answer: > 100 µM

Question: And the TGI (HT29 colon)?
Answer: > 100 µM

Question: For COc1ccc(C2OC(c3ccncc3)=NN2C)cc1OC (stereo not drawn), which TGI (MOLT-4 leukemia) is on record?
Answer: > 100 µM

Question: And the TGI (A549 NSCLC)?
Answer: > 100 µM

Question: What about the TGI (RXF 393 renal) of the same compound?
Answer: > 100 µM

Question: What about the TGI (HCC-2998 colon) of the same compound?
Answer: > 100 µM

Question: And the TGI (IGROV1 ovarian)?
Answer: > 100 µM

Question: And the TGI (EKVX NSCLC)?
Answer: > 100 µM

Question: And the TGI (MCF7 breast)?
Answer: > 100 µM

Question: And the TGI (UACC-62 melanoma)?
Answer: > 100 µM

Question: What about the TGI (MDA-MB-231 breast) of the same compound?
Answer: > 100 µM

Question: And the TGI (NCI-H460 lung)?
Answer: > 100 µM

Question: What about the TGI (SF-539 CNS) of the same compound?
Answer: > 100 µM

Question: What about the TGI (CCRF-CEM leukemia) of the same compound?
Answer: > 100 µM

Question: What about the TGI (U251 CNS) of the same compound?
Answer: > 100 µM

Question: What about the TGI (NCI-H226 lung) of the same compound?
Answer: > 100 µM

Question: What about the TGI (SK-MEL-28 melanoma) of the same compound?
Answer: > 100 µM

Question: And the TGI (RPMI-8226 leukemia)?
Answer: > 100 µM

Question: What about the TGI (NCI-H522 lung) of the same compound?
Answer: > 100 µM

Question: And the TGI (MALME-3M melanoma)?
Answer: > 100 µM

Question: And the TGI (DU-145 prostate)?
Answer: > 100 µM

Question: And the TGI (SN12C renal)?
Answer: > 100 µM

Question: And the TGI (SW-620 colon)?
Answer: > 100 µM

Question: And the TGI (KM12 colon)?
Answer: > 100 µM

Question: And the TGI (COLO 205 colon)?
Answer: > 100 µM

Question: What about the TGI (OVCAR-4 ovarian) of the same compound?
Answer: > 100 µM

Question: What about the TGI (ACHN renal) of the same compound?
Answer: > 100 µM

Question: And the TGI (HCT-15 colon)?
Answer: > 100 µM

Question: What about the TGI (A498 renal) of the same compound?
Answer: 98.4 µM

Question: What about the TGI (SK-MEL-5 melanoma) of the same compound?
Answer: > 100 µM

Question: And the TGI (MDA-N)?
Answer: > 100 µM

Question: And the TGI (LOX IMVI melanoma)?
Answer: > 100 µM

Question: And the TGI (NCI-H23 lung)?
Answer: > 100 µM

Question: And the TGI (CAKI-1 renal)?
Answer: > 100 µM

Question: What about the TGI (TK-10 renal) of the same compound?
Answer: > 100 µM

Question: What about the TGI (HL-60(TB) leukemia) of the same compound?
Answer: > 100 µM

Question: What about the TGI (K-562 leukemia) of the same compound?
Answer: > 100 µM

Question: What about the TGI (HCT-116 colon) of the same compound?
Answer: > 100 µM

Question: And the TGI (786-0 renal)?
Answer: > 100 µM

Question: And the TGI (NCI/ADR-RES ovarian)?
Answer: > 100 µM

Question: And the TGI (PC-3 prostate)?
Answer: > 100 µM

Question: What about the TGI (SNB-19 CNS) of the same compound?
Answer: > 100 µM

Question: And the TGI (SF-268 CNS)?
Answer: > 100 µM

Question: What about the TGI (SK-MEL-2 melanoma) of the same compound?
Answer: > 100 µM

Question: And the TGI (MDA-MB-435)?
Answer: > 100 µM

Question: What about the TGI (OVCAR-8 ovarian) of the same compound?
Answer: > 100 µM

Question: What about the TGI (T-47D breast) of the same compound?
Answer: > 100 µM

Question: What about the TGI (M14 melanoma) of the same compound?
Answer: > 100 µM

Question: And the TGI (OVCAR-3 ovarian)?
Answer: > 100 µM

Question: And the TGI (HS 578T breast)?
Answer: > 100 µM

Question: What about the TGI (SF-295 CNS) of the same compound?
Answer: > 100 µM

Question: And the TGI (OVCAR-5 ovarian)?
Answer: > 100 µM

Question: What about the TGI (UO-31 renal) of the same compound?
Answer: > 100 µM

Question: What about the TGI (UACC-257 melanoma) of the same compound?
Answer: > 100 µM

Question: And the TGI (SK-OV-3 ovarian)?
Answer: > 100 µM

Question: And the TGI (HOP-62 NSCLC)?
Answer: > 100 µM

Question: And the TGI (HOP-92 NSCLC)?
Answer: > 100 µM

Question: And the TGI (HT29 colon)?
Answer: > 100 µM
